This assay has as its target exoglucanase. The experiment in a line: In vitro exoglucanase inhibition, pNPC assay (I50 determination). The class given is biochemical, R. flavipes. Conditions: foregut/salivary gland/midgut (endogenous) and hindgut (symbiotic) fractions, FIG. 4. The protocol:
Gut dissections were carried out for cellulase distribution and inhibition studies. For dissections, termites were immobilized on ice, decapitated, and the entire digestive tract removed through a small incision made in the abdominal exoskeleton. For cellulase distribution studies, dissected guts were divided into three regions: (i) salivary gland+foregut, (ii) midgut and (iii) hindgut. For inhibition studies, guts were divided into two major components that included: (i) foregut, salivary gland and midgut, and (ii) hindgut. […]
Cellulase activity assays were adapted from Han et al. in “Characterization of a bifunctional cellulase and its structural gene,” J. Biol. Chem. 270 (1995) 26012-26019, with optimization for a 96-well microplate format. […] Color was allowed to develop on ice for 15 min before measuring absorbance at 540 nm relative to a glucose standard curve.
The hydrolysis product of both the pNPC and pNPG substrates is p-nitrophenol, which is yellow in color and permits for direct quantification of activity in a kinetic assay. pNPC and pNPG assays were initially incubated at 32° C. for 20 min before measuring the release of the product, p-nitrophenol, at 420 nm. The absorbance of reactions was read every 2 min for 1 hr and activity was determined based on rate of absorbance change. […]

As to `OC[C@@H]1[C@@H](O[C@@H]2O[C@H](CO)[C@@H](O)[C@H](O)[C@H]2O)[C@H](O)[C@@H](O)c2nccn21` [CBI, cellobioimidazole], the “I50 against exoglucanase activity” value was “I50s in the nM-μM range”.
Then fluoromethyl glucose [FMG], with “virtually no inhibitory properties”.

The values above are taken from patent US20080107619A1, “Carbohydrate based cellulase inhibitors as feeding stimulants in termites” (University of Florida Research Foundation, Inc., priority 2006, published 2008).
